We go through 2 molecules from article PMC4767442 (Oncotarget, 2015).

Series [1] relates to 3T3 mouse embryo fibroblast line. Nature of the series: MTT proliferation/viability assay, 3T3. In kind it is cell-based. The following applies: 72 h/37°C, mean ± S.D., serum- and pyruvate-free DMEM. On the procedure:
The MCF-7 human breast adenocarcinoma cell line was purchased from the European Collection of Cell Cultures (U.K.). The HL-60 human promyelocytic leukemia cell line, HCT116 human colorectal carcinoma cell line, H9c2 rat heart-derived myoblast cell line and 3T3 mouse embryo fibroblast line, were obtained from the American Type Culture Collection (VA, U.S.A.). Cells were cultured in Dulbecco's modified Eagle's medium (DMEM, Lonza, Switzerland) with or without (for MCF-7 cells only) phenol red, supplemented with 10% heat-inactivated fetal bovine serum (FBS; Lonza, Switzerland), 1% penicillin/streptomycin solution (Lonza, Switzerland) and 10 mM HEPES buffer (pH 7.0-7.6; Sigma-Aldrich, Germany). The HL-60 cell line was maintained in RPMI medium (Sigma-Aldrich, Germany) supplemented with 10% heat-inactivated FBS and 1% penicillin/streptomycin solution. All cell lines were cultured in 75 cm^2 tissue culture flasks (Switzerland) at 37°C in a humidified atmosphere of 5% CO2. Sub-confluent cells or, in the case of HL-60 cells, a cell suspension, were sub-cultured every 3-4 days.
Cells were seeded in 96-well plates for 24 h/37°C at a density of 5,000 (MCF-7), 10,000 (HL-60), 2,000 (HCT116) and 10,000 (3T3 and H9c2) cells/well. For 3T3 and H9c2 cells, the medium was changed to serum- and pyruvate-free DMEM 24 h prior to the experiments. Anti-proliferative and cytotoxicity effects of the compounds were studied at different concentrations after incubations for 72 h/37°C. Viabilities of cells were determined using MTT assays (Sigma-Aldrich, Germany) according to the manufacturer's instructions on a Tecan Infinite 200M plate reader (Tecan, Austria). The proliferation/viability of treated groups was expressed as a percentage of the untreated controls (100%).

Series [2] deals with H9c2 heart-derived myoblasts. Kind of series: In-vitro metabolism of the drugs in H9c2 cells (HPLC-MS). It counts as in vitro ADME, rat. The following applies: H9c2, 10 μmol·L^−1, 12 h, 37°C. On the procedure:
Breast cancer cells (MCF-7) and H9c2 heart-derived myoblasts were seeded in 100-mm Petri dishes (1,000,000 cells/dish) for 24 h/37°C. Freshly prepared stock solutions of Dp44mT and DpC in DMSO (Sigma-Aldrich, Germany) were diluted in culture medium to the required working concentration.
The cells were incubated for 12 h (37°C) with either Dp44mT or DpC at a concentration of 10 μmol·L^−1. After this incubation, the cells were harvested, washed twice with ice-cold PBS buffer, centrifuged (790 x g) and precipitated with acetonitrile (200 μL/10^6 cells) prior to the analysis. The overlaying medium was also analyzed to search for possible metabolites. […] All samples were analyzed using HPLC-MS as described below in the Section: HPLC-MS method to identify metabolites of the drugs.
To search for the metabolites, plasma was precipitated with methanol or acetonitrile (plasma/solvent ratio – 1:3, v/v), treated using solid phase extraction (SPE; Discovery DSC-PH, Supelco, PA, U.S.A.), or liquid-liquid extraction with various solvents (ethyl acetate, toluene, dichloromethane). […] These samples were then analyzed using HPLC-MS with ion trap mass analyzer implementing the settings described previously with minor modifications (for details of the analyses see Supplementary Material, part 2.1). […]

A short description of series [3]: Post-preparative stability in the autosampler at 10°C. It counts as physicochemical. The following applies: for decomposition on storage (in words): 24 h storage in the autosampler at 10°C; for Post-preparative stability: autosampler 10°C, 24 h. The procedure: The UHPLC-MS/MS methods for quantitative assays were validated with respect to selectivity, linearity, precision, accuracy, stability, recovery, matrix effects and dilution integrity (see […]
Supplementary Table 1-3). […]
Stability was assessed at low, medium and high concentration levels. Long -term stability was assessed for plasma samples at -80°C over a period of 7 days (three aliquots per level; Supplementary Table 3). […]

Details of series [4]: method as in earlier work. The following applies: chronically repeated dosing at high non-optimal levels (Dp44mT, mice, ref 1); DpC at markedly higher doses; cited from earlier work.
In series [5] the test system is cellular labile iron pools. Kind of series: Fluorimetric calcein-AM assay of intracellular iron chelation. It counts as cell-based. The following applies: 10 μmol·L^−1. The procedure: Iron chelation efficiency of the compounds at a concentration of 10 μmol·L^−1 was determined via 3 methods: (1) the calcein assay; (2) the ability of the ligands to induce ^59Fe mobilization from cells prelabeled with ^59Fe-transferrin; and (3) the efficacy of these agents to inhibit the uptake of ^59Fe from ^59Fe-transferrin [22, 38–40].
The fluorimetric calcein-AM assay was performed by established methods, as described previously. The Fe chelation efficiency of the metabolites in cells was expressed as a percentage of that of the parent chelator, Dp44mT or DpC (100%). For studies assessing the ability of these agents to induce ^59Fe mobilization and inhibit ^59Fe uptake from ^59Fe-transferrin by cells, human transferrin (Sigma-Aldrich, Germany) was labeled with ^59Fe (PerkinElmer, MA, USA) to generate ^59Fe-transferrin at a final specific activity of 500 pCi/pmol Fe, as previously described. The unbound ^59Fe was removed by exhaustive vacuum dialysis against a large excess of 0.15 M NaCl buffered to pH 7.4 with 1.4% NaHCO3 by standard methods.

[6] abbreviates: high concentration level (2.105-3.115 µmol·L-1).
Setting [7] is: low concentration level (0.035-0.156 µmol·L-1).
Where [8] appears, read: medium concentration level (0.702-1.558 µmol·L-1).

One may read the IC50 as the concentration needed to halve the response being measured. A lower IC50 goes with higher potency. On to `CN(C)C(=S)NN=C(c1ccccn1)c1ccccn1` [Dp44mT, di(2-pyridyl)ketone 4,4-dimethyl-3-thiosemicarbazone], for which inhibition in series [1] was half-maximal at 157 ± 51 nM (IC50). Also, in series [2], the “metabolism in heart-derived myoblasts” value is on record as “do not undergo significant metabolism”. Besides, the “decomposition on storage (in words)” value in series [3] is reported as “No significant decomposition”. In addition, the Post-preparative stability in series [3] (setting [6]) is 98.90%; in series [3] (setting [7]), 93.70%; in series [3] (setting [8]) it was 95.92%. In series [4], the cardiac fibrosis entry is on record as “cardiac fibrosis was demonstrated”. For the same molecule, the “intracellular Fe chelation efficacy (in words)” value in series [5] is “high intracellular chelation efficacy”.
As to `CN(C(=S)NN=C(c1ccccn1)c1ccccn1)C1CCCCC1` [DpC, di(2-pyridyl)ketone 4-cyclohexyl-4-methyl-3-thiosemicarbazone], half-maximal inhibition in series [1] (IC50) required 412 ± 177 nM. The “metabolism in heart-derived myoblasts” value in series [2] is “do not undergo significant metabolism”. The “decomposition on storage (in words)” value in series [3] is reported as “No significant decomposition”. In addition, the Post-preparative stability in series [3] (setting [6]) came out at 107.34%; in series [3] (setting [7]) it was 97.48%; in series [3] (setting [8]), 95.68%. The cardiac fibrosis entry in series [4] is “does not induce cardiac fibrosis”. The “intracellular Fe chelation efficacy (in words)” value in series [5] was “comparable to Dp44mT”.
